| SMILES | melting point |
| --- | --- |
| CSCCC(S)C(=O)NC1(C(=O)NC(Cc2ccc(-c3ccoc3)nc2)C(=O)O)CCCC1.Cl (stereo not drawn) | 150 to 153 °C |
| CCCC(S)C(=O)NC1(C(=O)NC(Cc2ccc(-c3cccs3)nc2)C(=O)O)CCCC1.Cl (stereo not drawn) | 165 to 167 °C |
| CC[C@H](C)[C@H](S)C(=O)NC1(C(=O)NC(Cc2ccc(-c3ccccc3)s2)C(=O)O)CCCC1 (stereo in doubt) [Example 1(b), 2-{[1-(2-Mercapto-3-methyl-pentanoylamino)-cyclopentanecarbonyl]-amino}-3-(5-phenyl-thien-2-yl)-propionic acid] | 131 to 133 °C |
| O=C(O)C(Cc1cc(-c2ccccc2)cs1)NC(=O)C1(NC(=O)[C@@H](S)Cc2ccccc2)CCCC1 (stereo in doubt) [Example 1(d), 2-{[1-(2-Mercapto-3-phenyl-propionylamino)-cyclopentanecarbonyl]-amino}-3-(4-phenyl-thien-2-yl)-propionic acid] | 133 to 136 °C |
| Cc1nc(-c2ccccc2)oc1CC(NC(=O)C1(NC(=O)[C@@H](S)C(C)C)CCCC1)C(=O)O (stereo in doubt) [Example 1(e), 2-{[1-(2-Mercapto-3-methyl-butanoylamino)-cyclopentanecarbonyl]-amino}-3-(4-methyl-2-phenyl-oxazol-5-yl)-propionic acid] | 227 to 229 °C |
| CC(C)C[C@H](S)C(=O)NC1(C(=O)N[C@@H](Cc2cnc(-c3ccc(F)c(Cl)c3)s2)C(=O)O)CCCC1 (stereo in doubt) [Example 1(f), 3-[2-(3-Chloro-4-fluoro-phenyl)-thiazol-5-yl]-2-{[1-(2-mercapto-4-methyl-pentanoylamino)-cyclopentanecarbonyl]-amino}-propionic acid] | 96 to 98 °C |
| Cc1noc(C)c1-c1nc(CC(NC(=O)C2(NC(=O)[C@@H](S)C(C)C)CCCC2)C(=O)O)no1 (stereo in doubt) [Example 1(g), 3-[5-(3,5-Dimethyl-isoxazol-4-yl)-[1,2,4]oxadiazol-3-yl]-2-{[1-(2-mercapto-3-methyl-butanoylamino)-cyclopentanecarbonyl]-amino}-propionic acid] | 170 to 172 °C |
| Cc1noc(C)c1-c1nc(CC(NC(=O)C2(NC(=O)[C@@H](S)CC(C)C)CCCC2)C(=O)O)no1 (stereo in doubt) [Example 1(h), 3-[5-(3,5-Dimethyl-isoxazol-4-yl)-[1,2,4]oxadiazol-3-yl]-2-{[1-(2-mercapto-4-methyl-pentanoylamino)-cyclopentanecarbonyl]-amino}-propionic acid] | 151 to 153 °C |
| CC(C)C[C@H](NC(=O)[C@@H](S)CC(C)C)C(=O)N[C@@H](Cc1ccc(-c2cccs2)nc1)C(=O)O (stereo in doubt) [Example 2(aa), 2-[2-(2-Mercapto-4-methyl-pentanoylamino)-4-methyl-pentanoylamino]-3-[6-(thien-2-yl)-pyridin-3-yl]-propionic acid] | 156 to 158 °C |
| CC[C@H](C)C(S)C(=O)NC1(C(=O)NC(Cc2ccc(-c3ccsc3)nc2)C(=O)O)CCCC1 (stereo in doubt) [Example 2(b), 2-{[1-(2-Mercapto-3-methyl-pentanoylamino)-cyclopentanecarbonyl]-amino}-3-[6-(thien-3yl)-pyridin-3-yl]-propionic acid] | 200 to 202 °C |
| CC(C)C[C@H](S)C(=O)N[C@@H](Cc1ccc(Br)nc1)C(=O)N[C@@H](Cc1ccc(-c2cccs2)nc1)C(=O)O (stereo in doubt) [Example 2(bb), 2-[3-(6-Bromo-pyridin-3-yl)-2-(2-mercapto-4-methyl-pentanoylamino)-propionylamino]-3-[6-(thien-2-yl)-pyridin-3-yl]-propionic acid] | 194 to 195 °C |
| CC(C)C[C@H](S)C(=O)NC1(C(=O)NC(Cc2ccc(-c3ccoc3)nc2)C(=O)O)CCCC1 (stereo in doubt) [Example 2(dd), 3-[6-(Furan-3-yl)-pyridin-3-yl]-2-{[1-(2-mercapto-4-methyl-pentanoylamino)-cyclopentanecarbonyl]-amino}-propanoic acid] | 190 to 193 °C |
| CC(C)C[C@H](S)C(=O)NC(C)(C)C(=O)N[C@@H](Cc1ccc(-c2ccsc2)nc1)C(=O)O (stereo in doubt) [Example 2(k), 2-[2-(2-Mercapto-4-methyl-pentanoylamino)-2-methyl-propionylamino]-3-[6-(thien-3-yl)-pyridin-3-yl]-propionic acid] | 218 to 220 °C |
| O=C(O)[C@H](Cc1ccc(-c2ccsc2)nc1)NC(=O)C1(NC(=O)[C@@H](S)Cc2ccccc2)CCCC1 (stereo in doubt) [Example 2(l), 2-{[1-(2-Mercapto-3-phenyl-propionylamino)-cyclopentanecarbonyl]-amino}-3-[6-(thien-3-yl)-pyridin-3-yl]-propionic acid] | 208 to 209 °C |
| CC(C)C[C@H](S)C(=O)NC1(C(=O)NC(Cc2ccc(-c3cccnc3)nc2)C(=O)O)CCCC1 (stereo in doubt) [Example 2(o), 2-{[1-(2-Mercapto-4-methyl-pentanoylamino)-cyclopentanecarbonyl]-amino}-3-[6-(pyridin-3-yl)-pyridin-3-yl]-propanoic acid] | 165 to 168 °C |
| CC(C)C[C@H](S)C(=O)NC1(C(=O)NC(Cc2ccc(-c3ccco3)nc2)C(=O)O)CCCC1 (stereo in doubt) [Example 2(qq), 3-[6-(Furan-2-yl)-pyridin-3-yl]-2-{[1-(2-mercapto-4-methyl-pentanoylamino)-cyclopentanecarbonyl]-amino}-propionic acid] | 200 to 202 °C |
| CSCC[C@H](S)C(=O)NC1(C(=O)NC(Cc2ccc(-c3cccs3)nc2)C(=O)O)CCCC1 (stereo in doubt) [Example 2(r), 2-{[1-(2-Mercapto-4-methylthio-butanoylamino)-cyclopentanecarbonyl]-amino}-3-[6-(thien-2-yl)-pyridin-3-yl]-propionic acid] | 175 to 177 °C |
| CSCC[C@H](S)C(=O)NC1(C(=O)NC(Cc2ccc(-c3ccco3)nc2)C(=O)O)CCCC1 (stereo in doubt) [Example 2(tt), 3-[6-(Furan-2-yl)-pyridin-3-yl]-2-{[1-(2-mercapto-4-methylthiobutanoylamino)-cyclopentanecarbonyl]-amino}-propionic acid] | 195 to 197 °C |
| CC(C)C[C@H](S)C(=O)NC1(C(=O)NC(Cc2ccc(-c3nccs3)nc2)C(=O)O)CCCC1 (stereo in doubt) [Example 2(uu), 2-{[1-(2-Mercapto-4-methyl-pentanoylamino)-cyclopentanecarbonyl]-amino}-3-[6-(thiazol-2-yl)-pyridin-3-yl]-propionic acid] | 185 to 187 °C |
| O=C(NC1(C(=O)N[C@@H](Cc2ccc(-c3cccs3)nc2)C(=O)O)CCCC1)C(S)Cc1ccc(O)cc1 (stereo in doubt) [Example 2(v), 2-({1-[3-(4-Hydroxy-phenyl)-2-mercapto-propanoylamino]-cyclopentanecarbonyl}-amino)-3-[6-(thien-2-yl)-pyridin-3-yl]-propionic acid] | 219 to 220 °C |
| CC(C)C[C@H](S)C(=O)N[C@@H](Cc1ccc(-c2cccs2)nc1)C(=O)N[C@@H](Cc1ccc(-c2cccs2)nc1)C(=O)O (stereo in doubt) [Example 2(w), 2-{2-(2-Mercapto-4-methyl-pentanoylamino)-3-[6-(thiophen-2-yl)-pyridin-3-yl]-propanoylamino}-3-[6-(thien-2-yl)-pyridin-3-yl]-propionic acid] | 210 to 212 °C |
| CC(C)C[C@H](S)C(=O)NC(C)(C)C(=O)N[C@@H](Cc1ccc(-c2cccs2)nc1)C(=O)O (stereo in doubt) [Example 2(z), 2-[2-(2-Mercapto-4-methyl-pentanoylamino)-2-methyl-propionylamino]-3-[6-(thien-2-yl)-pyridin-3-yl]-propionic acid] | 194 to 196 °C |
| CC(C)[C@H](S)C(=O)NC1(C(=O)NC(Cc2cc(-c3ccccc3)cs2)C(=O)O)CCCC1 (stereo partly drawn) [Example 1(c), 2-{[1-(2-Mercapto-3-methyl-butanoyllamino)-cyclopentanecarbonyl]-amino}-3-(4-phenyl-thien-2-yl)-propionic acid] | 158 to 164 °C |
| CC(C)C[C@H](S)C(=O)N[C@@H](Cc1ccccc1)C(=O)N[C@@H](Cc1ccc(-c2cccs2)nc1)C(=O)O [Example 2(u), 2-[1-(2-Mercapto-4-methyl-pentanoylamino)-3-phenyl-propionylamino]-3-[6-(thien-2-yl)-pyridin-3-yl]-propionic acid] | 209 to 210 °C |

From patent US6689801B2, “Certain heteroaryl substituted thiol inhibitors of endothelin-converting enzyme” (Novartis AG, priority 1998, dated 2004)
